Measurements as given in patent US11000601B2, “Conjugated biological molecules, pharmaceutical compositions and methods” (OBI Pharma, Inc., priority 2016, dated 2021).
“And” between values parts separate entries of the source, which are not always exact repeats. Equal entries are not always repeated. Square brackets hold non-standard residues; d marks the D form. Peptide text beside a SMILES is read from it. * marks the point of attachment. Dolaproine = CO[C@@H]([C@@H]1CCCN1)[C@@H](C)C(=O)O; Dil = CC[C@H](C)[C@H](NC)[C@@H](CC(=O)O)OC; X1 = C[C@@H](N*)[C@@H](O)c1ccccc1; NMeV = CN[C@H](C(=O)O)C(C)C

Assay: Body weight, mortality and signs of overt toxicity in NCI-N87 implanted female nu/nu mice
Assay type: in vivo, mouse
Method: In a xenograft tumor model of human gastric carcinoma, viable NCI-N87 (ATCC CRL-5822) cells were subcutaneously (SC) implanted (2.5×10^6 cells/mL with matrigel (1:1) at 0.2 mL/mouse) into the right flank of female nu/nu mice. Tumor implanted mice were divided into seven treatment groups, each group containing eight animals, and one group containing five animals, and dose administrations were initiated one day after cell implantation (denoted as Day 1).
Female nude (nu/nu) mice aged 5-6 weeks obtained from BioLasco Taiwan (under Charles River Laboratories Licensee) were used. The animals were housed in individually ventilated cages (IVC, 36 Mini Isolator system). The allocation for 3 animals was 27×20×14 in cm. All animals were maintained in a hygienic environment under controlled temperature (20-24° C.) and humidity (30%-70%) with 12-hour light/dark cycle. Free access to standard lab diet [MFG (Oriental Yeast Co., Ltd., Japan)] and autoclaved tap water in bottles were granted. All aspects of this work including housing, experimentation, and animal disposal were performed in general accordance with the “Guide for the Care and Use of Laboratory Animals: Eighth Edition” (National Academies Press, Washington, D.C., 2011) in our AAALAC-accredited laboratory animal facility. In addition, the animal care and use protocol was reviewed and approved by the IACUC at Eurofins Panlabs Taiwan, Ltd.
The tumor volumes, body weights, mortality, and signs of overt toxicity were monitored and recorded twice weekly for 100 days. Tumor growth inhibition was calculated as T/C (treatment/control)×100%. A T/C value≤42% compared to that of the vehicle control group was considered significant anti-tumor activity. Two-way ANOVA followed by Bonferroni test was used to ascertain the statistically significant significance of groups compared to respective vehicle control (*p<0.05).

[1] = 0.191 mg/kg × 4 IP once weekly, group mean
[2] = 0.191 mg/kg × 4 IP once weekly, individual mouse

SMILES: CC[C@H](C)[C@@H]([C@@H](CC(=O)N1CCC[C@H]1[C@H](OC)[C@@H](C)C(=O)N[C@H](C)[C@@H](O)c1ccccc1)OC)N(C)C(=O)[C@@H](NC(=O)[C@@H](NC)C(C)C)C(C)C [MMAE, monomethyl auristatin E] (H-[NMeV]V[Dil][Dolaproine]-X1)
- Mortality (animal entered as died in tumor volume table) (0.191 mg/kg × 4 IP (Once weekly), mouse No. 6, Day 57-Day 100): died
- Body Weight Day 1, Mean [1]: 21.9 g
- Body Weight Day 4, Mean [1]: 20.4 g
- Body Weight Day 8, Mean [1]: 22.1 g
- Body Weight Day 11, Mean [1]: 22.6 g
- Body Weight Day 15, Mean [1]: 23.4 g
- Body Weight Day 18, Mean [1]: 23.6 g
- Body Weight Day 25, Mean [1]: 24.0 g
- Body Weight Day 32, Mean [1]: 25.1 g
- Body Weight Day 36, Mean [1]: 25.1 g
- Body Weight Day 50, Mean [1]: 26.0 g
- Body Weight Day 1 [2]: 20 g (2×) and 22 g (3×) and 24 g (2×) and 21 g
- Body Weight Day 4 [2]: 18 g and 19 g (2×) and 22 g and 21 g and 20 g and died and 24 g
- Body Weight Day 8 [2]: 22 g (3×) and 23 g (2×) and died and 24 g and 19 g
- Body Weight Day 11 [2]: 22 g (2×) and 23 g (2×) and 25 g and 24 g and died and 19 g
- Body Weight Day 15 [2]: 24 g (2×) and 23 g (3×) and 25 g and died and 22 g
- Body Weight Day 18 [2]: 24 g (3×) and 22 g (2×) and 23 g and 26 g and died
- Body Weight Day 22 [2]: 24 g (3×) and 22 g and 25 g (3×) and died
- Body Weight Day 25 [2]: 24 g (4×) and 22 g and 25 g (2×) and died
- Body Weight Day 29 [2]: 25 g (3×) and 24 g and 26 g (3×) and died
- Body Weight Day 32 [2]: 25 g (2×) and 23 g and 24 g and 27 g and 26 g (2×) and died
- Body Weight Day 36 [2]: 26 g (2×) and 24 g and 25 g (4×) and died
- Body Weight Day 39 [2]: 26 g (6×) and 24 g and died
- Body Weight Day 43 [2]: 26 g (6×) and 24 g and died
- Body Weight Day 46 [2]: 26 g (3×) and 25 g and 27 g (3×) and died
- Body Weight Day 50 [2]: 26 g (4×) and 24 g and 27 g (2×) and died
- Body Weight Day 53 [2]: 27 g (4×) and 24 g and died and 26 g and 28 g
- Mortality (animal recorded as died in tumor volume table) (animal No. 6, Day 4-Day 25, 0.191 mg/kg × 4 IP once weekly): died
